{"source": "PubChem BioAssay AID1053162", "about": "(Broad Institute, 2014)", "test_system": "HepG2 PCSK9 mRNA, RT-qPCR, 24 h", "experiment": "PCSK9 mRNA changes with sterol depletion, late-stage follow-up, mechanism study for Trib1 inducer project, cell-based, HepG2, RT-PCR, cherry-picked dose (AID 1053162)", "details": "active compounds read high", "data": [{"smiles": "CN1C(=O)c2cc(NC(=O)c3ccc(C(F)(F)F)cc3)ccc2OC[C@@H]2O[C@H](CC(=O)NC3Cc4ccccc4C3)CC[C@@H]21", "values": [{"measurement": "fold induction", "value": 2.5}]}]}
